The structures appear in SMILES notation.

The values below come from US12479847B2 (DANA-FARBER CANCER INSTITUTE, INC., priority 2019, dated 2025).

Experiment in all cases: KINOMEscan (ScanMAX) kinase profiling
Holding throughout (assay type): binding

The target of assay [1] is T1, panel of 468 kinases (Homo sapiens, UniProt O75460).
T1 construct: purchased KINOMEscan (ScanMAX) service
As to conditions: ERN1; 1 μM; read-out: % control.

Assay [2] has as its target T2, panel of 468 kinases (Homo sapiens, UniProt P27448).
T2 construct: purchased KINOMEscan (ScanMAX) service
As to conditions: MARK3; 1 μM; read-out: % control.

Assay [3] has as its target T3, panel of 468 kinases (Homo sapiens, UniProt P37173).
T3 construct: purchased KINOMEscan (ScanMAX) service
The conditions noted are these: TGFBR2; 1 μM; read-out: % control.

The target of assay [4] is T4, panel of 468 kinases (Homo sapiens, UniProt P42679).
T4 construct: purchased KINOMEscan (ScanMAX) service
T4 sequence (P42679 1-507): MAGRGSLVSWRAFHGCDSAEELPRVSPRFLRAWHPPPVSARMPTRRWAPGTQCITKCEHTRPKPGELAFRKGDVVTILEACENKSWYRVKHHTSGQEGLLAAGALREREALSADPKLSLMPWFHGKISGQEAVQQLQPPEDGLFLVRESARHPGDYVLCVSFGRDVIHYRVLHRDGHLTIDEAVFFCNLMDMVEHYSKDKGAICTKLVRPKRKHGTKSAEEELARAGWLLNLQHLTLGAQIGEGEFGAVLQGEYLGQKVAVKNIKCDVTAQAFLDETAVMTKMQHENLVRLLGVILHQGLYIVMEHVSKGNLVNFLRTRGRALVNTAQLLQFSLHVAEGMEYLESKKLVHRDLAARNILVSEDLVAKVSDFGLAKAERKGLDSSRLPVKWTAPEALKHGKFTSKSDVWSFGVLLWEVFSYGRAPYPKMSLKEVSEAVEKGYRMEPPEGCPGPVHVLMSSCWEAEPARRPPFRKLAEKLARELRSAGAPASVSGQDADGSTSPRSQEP
As to conditions: CTK; 1 μM; read-out: % control.

The target of assay [5] is T5, panel of 468 kinases (Homo sapiens, UniProt P48730).
T5 construct: purchased KINOMEscan (ScanMAX) service
T5 sequence (P48730 whole entry): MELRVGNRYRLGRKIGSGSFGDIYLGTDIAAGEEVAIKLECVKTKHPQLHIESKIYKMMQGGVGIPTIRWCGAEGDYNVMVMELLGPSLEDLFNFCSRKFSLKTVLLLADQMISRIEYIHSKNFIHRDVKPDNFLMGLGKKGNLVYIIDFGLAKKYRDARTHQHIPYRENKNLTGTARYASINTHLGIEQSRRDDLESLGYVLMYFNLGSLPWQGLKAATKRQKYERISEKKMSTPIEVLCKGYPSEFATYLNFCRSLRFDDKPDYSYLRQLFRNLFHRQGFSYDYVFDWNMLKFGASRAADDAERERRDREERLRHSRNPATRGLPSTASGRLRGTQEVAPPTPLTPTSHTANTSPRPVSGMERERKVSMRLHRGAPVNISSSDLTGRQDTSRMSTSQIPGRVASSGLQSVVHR
The conditions noted are these: CSNK1D; 1 μM; read-out: % control.

In assay [6] the target is T6, panel of 468 kinases (Homo sapiens, UniProt P51813).
T6 construct: purchased KINOMEscan (ScanMAX) service
T6 sequence (P51813 1-675): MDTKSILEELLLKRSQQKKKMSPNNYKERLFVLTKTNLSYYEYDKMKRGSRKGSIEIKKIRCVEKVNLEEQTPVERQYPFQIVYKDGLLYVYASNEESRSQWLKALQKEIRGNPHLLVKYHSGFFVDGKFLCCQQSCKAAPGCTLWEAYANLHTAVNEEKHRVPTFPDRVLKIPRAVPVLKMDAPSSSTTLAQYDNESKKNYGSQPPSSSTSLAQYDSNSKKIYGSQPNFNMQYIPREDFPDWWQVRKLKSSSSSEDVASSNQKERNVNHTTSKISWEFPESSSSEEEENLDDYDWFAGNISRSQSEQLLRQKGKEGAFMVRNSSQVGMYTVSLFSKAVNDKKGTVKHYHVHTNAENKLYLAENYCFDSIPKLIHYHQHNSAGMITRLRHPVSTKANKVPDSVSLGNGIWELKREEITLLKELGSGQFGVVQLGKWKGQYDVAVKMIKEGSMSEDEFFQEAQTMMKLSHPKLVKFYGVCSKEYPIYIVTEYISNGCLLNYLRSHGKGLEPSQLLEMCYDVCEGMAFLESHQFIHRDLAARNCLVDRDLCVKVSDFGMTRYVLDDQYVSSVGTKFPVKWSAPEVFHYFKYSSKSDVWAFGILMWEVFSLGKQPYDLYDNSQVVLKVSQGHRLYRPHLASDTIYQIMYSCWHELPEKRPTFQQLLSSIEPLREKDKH
As to conditions: BMX; 1 μM; read-out: % control.

Assay [7] has as its target T7, panel of 468 kinases (Homo sapiens, UniProt Q02156).
T7 construct: purchased KINOMEscan (ScanMAX) service
T7 sequence (Q02156 1-737): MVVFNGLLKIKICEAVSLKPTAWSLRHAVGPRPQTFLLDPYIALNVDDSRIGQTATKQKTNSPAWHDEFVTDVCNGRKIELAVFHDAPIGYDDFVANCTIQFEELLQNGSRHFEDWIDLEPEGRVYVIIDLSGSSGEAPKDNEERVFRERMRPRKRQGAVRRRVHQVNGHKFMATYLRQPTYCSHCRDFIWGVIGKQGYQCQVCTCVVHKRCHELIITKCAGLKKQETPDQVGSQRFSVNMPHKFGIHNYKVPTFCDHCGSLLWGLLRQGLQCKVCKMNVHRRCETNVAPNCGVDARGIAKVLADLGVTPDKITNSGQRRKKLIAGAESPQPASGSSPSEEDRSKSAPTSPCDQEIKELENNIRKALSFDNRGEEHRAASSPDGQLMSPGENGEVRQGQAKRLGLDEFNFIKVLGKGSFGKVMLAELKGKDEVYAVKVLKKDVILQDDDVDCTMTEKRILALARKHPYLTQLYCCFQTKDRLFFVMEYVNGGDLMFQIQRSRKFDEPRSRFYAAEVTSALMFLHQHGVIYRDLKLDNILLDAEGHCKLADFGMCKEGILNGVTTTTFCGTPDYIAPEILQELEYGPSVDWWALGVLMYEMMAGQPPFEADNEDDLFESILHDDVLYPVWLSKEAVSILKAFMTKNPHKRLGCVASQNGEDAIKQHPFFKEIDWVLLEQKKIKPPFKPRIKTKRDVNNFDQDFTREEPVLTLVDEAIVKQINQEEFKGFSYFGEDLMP
The conditions noted are these: PRKCE; 1 μM; read-out: % control.

Assay [8] concerns the target T8, panel of 468 kinases (Homo sapiens, UniProt Q13464).
T8 construct: purchased KINOMEscan (ScanMAX) service
As to conditions: ROCK1; 1 μM; read-out: % control.

In assay [9] the target is T9, panel of 468 kinases (Homo sapiens, UniProt Q16512).
T9 construct: purchased KINOMEscan (ScanMAX) service
T9 sequence (Q16512 whole entry): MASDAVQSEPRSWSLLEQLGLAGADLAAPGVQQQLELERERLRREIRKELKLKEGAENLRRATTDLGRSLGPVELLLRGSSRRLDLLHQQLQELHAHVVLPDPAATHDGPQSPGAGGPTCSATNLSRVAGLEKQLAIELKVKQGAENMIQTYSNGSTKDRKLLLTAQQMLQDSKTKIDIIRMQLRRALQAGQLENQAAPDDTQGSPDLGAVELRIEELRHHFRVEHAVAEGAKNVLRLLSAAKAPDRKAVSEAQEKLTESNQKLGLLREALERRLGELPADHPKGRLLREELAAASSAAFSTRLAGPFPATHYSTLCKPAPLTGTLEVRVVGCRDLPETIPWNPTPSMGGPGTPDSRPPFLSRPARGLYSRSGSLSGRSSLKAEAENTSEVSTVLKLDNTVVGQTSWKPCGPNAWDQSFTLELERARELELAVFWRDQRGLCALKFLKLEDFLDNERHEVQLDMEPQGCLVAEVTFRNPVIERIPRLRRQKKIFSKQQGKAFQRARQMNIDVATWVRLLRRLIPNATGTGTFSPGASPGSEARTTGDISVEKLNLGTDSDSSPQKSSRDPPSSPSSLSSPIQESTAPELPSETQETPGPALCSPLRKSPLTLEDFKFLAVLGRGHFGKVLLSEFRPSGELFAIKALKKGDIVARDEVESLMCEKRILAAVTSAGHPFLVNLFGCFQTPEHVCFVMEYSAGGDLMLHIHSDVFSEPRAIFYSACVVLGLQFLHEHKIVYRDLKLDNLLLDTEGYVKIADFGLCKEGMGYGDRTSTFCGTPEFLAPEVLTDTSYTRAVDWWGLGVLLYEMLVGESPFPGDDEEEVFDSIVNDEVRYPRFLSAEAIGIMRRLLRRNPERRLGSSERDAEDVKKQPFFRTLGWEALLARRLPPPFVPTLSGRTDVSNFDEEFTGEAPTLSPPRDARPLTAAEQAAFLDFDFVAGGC
As to conditions: PKN1; 1 μM; read-out: % control.

The target of assay [10] is T10, panel of 468 kinases (Homo sapiens, UniProt Q9P289).
T10 construct: purchased KINOMEscan (ScanMAX) service
T10 sequence (Q9P289 whole entry): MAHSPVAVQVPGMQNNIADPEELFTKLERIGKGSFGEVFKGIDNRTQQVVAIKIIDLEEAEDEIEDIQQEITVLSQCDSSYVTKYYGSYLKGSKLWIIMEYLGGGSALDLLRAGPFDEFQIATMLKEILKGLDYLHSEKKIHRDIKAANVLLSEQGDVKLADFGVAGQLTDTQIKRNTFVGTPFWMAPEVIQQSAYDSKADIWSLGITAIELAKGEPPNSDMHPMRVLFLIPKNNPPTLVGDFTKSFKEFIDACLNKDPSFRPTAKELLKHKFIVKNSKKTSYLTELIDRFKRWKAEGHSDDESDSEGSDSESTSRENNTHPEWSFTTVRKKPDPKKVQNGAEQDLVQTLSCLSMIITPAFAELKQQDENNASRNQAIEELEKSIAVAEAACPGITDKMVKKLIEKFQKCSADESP
The conditions noted are these: MST4; 1 μM; read-out: % control.

Assay [11] has as its target T11, panel of 468 kinases (Homo sapiens, UniProt Q9UEW8).
T11 construct: purchased KINOMEscan (ScanMAX) service
As to conditions: STK39; 1 μM; read-out: % control.

T8 sequence (Q13464 whole entry): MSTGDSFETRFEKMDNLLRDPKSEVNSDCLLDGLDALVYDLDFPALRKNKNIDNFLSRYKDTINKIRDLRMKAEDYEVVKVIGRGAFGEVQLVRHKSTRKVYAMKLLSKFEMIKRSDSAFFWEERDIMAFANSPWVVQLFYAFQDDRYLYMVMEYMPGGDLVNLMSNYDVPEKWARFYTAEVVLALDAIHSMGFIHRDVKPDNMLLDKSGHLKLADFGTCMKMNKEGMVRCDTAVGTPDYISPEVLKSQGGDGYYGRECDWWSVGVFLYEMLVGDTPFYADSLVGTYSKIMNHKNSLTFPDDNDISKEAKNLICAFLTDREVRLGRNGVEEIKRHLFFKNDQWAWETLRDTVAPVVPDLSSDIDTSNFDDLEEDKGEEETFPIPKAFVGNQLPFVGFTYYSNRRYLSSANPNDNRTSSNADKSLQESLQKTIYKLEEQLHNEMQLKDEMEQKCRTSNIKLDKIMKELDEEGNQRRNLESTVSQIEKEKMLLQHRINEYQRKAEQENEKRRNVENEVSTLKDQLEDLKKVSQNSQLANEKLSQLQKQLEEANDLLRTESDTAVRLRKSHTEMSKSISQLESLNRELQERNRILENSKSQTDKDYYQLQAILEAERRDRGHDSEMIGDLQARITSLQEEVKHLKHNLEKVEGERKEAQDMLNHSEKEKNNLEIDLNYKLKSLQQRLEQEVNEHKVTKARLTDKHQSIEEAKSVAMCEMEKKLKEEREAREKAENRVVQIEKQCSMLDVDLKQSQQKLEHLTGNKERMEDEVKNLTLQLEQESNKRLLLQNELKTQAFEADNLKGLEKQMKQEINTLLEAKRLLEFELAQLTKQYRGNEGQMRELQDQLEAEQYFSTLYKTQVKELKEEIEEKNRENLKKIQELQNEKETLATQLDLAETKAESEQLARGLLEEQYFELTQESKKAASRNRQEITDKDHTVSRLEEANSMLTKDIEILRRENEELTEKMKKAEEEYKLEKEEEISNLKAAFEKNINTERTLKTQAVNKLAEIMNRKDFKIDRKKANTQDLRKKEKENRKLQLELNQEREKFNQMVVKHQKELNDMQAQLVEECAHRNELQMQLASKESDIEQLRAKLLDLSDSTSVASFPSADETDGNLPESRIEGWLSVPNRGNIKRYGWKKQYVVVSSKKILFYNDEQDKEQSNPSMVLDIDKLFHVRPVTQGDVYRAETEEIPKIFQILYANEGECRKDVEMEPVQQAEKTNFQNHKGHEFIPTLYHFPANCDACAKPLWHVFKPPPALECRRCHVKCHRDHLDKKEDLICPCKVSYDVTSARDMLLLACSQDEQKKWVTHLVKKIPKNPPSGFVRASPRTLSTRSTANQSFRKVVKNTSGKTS
T2 sequence (P27448 whole entry): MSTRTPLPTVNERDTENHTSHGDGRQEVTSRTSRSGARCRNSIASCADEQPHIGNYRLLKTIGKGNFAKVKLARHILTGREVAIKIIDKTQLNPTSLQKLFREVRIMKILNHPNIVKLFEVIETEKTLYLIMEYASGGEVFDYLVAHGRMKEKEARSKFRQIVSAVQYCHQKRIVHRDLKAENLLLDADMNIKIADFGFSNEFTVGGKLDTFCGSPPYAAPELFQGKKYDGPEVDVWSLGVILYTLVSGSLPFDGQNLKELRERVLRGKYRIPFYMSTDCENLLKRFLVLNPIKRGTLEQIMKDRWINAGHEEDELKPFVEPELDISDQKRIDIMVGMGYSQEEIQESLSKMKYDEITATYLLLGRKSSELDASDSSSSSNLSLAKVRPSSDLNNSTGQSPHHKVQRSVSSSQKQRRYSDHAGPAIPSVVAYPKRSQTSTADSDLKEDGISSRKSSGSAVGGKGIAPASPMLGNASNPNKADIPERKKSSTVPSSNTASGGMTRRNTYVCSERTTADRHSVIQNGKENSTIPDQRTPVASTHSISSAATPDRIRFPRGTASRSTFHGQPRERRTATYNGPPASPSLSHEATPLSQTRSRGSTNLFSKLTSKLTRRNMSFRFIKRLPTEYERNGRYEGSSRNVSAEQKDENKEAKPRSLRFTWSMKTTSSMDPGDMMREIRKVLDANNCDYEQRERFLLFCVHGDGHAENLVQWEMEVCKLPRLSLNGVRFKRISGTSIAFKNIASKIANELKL
T1 sequence (O75460 19-977): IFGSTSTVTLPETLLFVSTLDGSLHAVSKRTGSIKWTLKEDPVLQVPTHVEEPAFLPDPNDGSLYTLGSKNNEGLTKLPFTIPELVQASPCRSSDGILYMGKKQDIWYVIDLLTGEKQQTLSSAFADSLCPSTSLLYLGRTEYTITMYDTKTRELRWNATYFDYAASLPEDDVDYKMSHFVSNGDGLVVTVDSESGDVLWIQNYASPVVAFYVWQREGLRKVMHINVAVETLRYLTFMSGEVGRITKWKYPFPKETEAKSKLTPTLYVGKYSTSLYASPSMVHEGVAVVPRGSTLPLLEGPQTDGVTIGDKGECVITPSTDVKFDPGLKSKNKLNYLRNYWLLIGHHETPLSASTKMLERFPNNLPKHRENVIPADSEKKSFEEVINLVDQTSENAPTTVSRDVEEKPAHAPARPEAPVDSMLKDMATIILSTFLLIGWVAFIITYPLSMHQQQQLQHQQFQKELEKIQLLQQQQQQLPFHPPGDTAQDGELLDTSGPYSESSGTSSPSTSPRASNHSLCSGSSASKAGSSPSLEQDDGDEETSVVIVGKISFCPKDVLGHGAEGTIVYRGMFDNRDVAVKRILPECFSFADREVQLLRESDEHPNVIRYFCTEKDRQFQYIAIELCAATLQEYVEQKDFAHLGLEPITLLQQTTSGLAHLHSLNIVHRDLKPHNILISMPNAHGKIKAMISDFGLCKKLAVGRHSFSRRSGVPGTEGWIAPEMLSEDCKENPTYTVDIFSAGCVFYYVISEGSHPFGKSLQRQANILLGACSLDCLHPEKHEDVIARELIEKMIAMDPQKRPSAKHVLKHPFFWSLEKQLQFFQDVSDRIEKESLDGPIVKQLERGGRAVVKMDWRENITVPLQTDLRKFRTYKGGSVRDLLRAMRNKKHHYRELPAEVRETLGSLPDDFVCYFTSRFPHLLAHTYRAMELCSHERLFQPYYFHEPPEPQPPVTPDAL

Regarding `CNc1nc(Nc2ccc(S(=O)(=O)N3CCC(N4CCOCC4)CC3)cc2OC)nc2[nH]cc(Cl)c12` [Compound 12, 5-chloro-N2-(2-methoxy-4-((4-morpholinopiperidin-1-yl)sulfonyl)phenyl)-N4-methyl-7H-pyrrolo[2,3-d]pyrimidine-2,4-diamine], the remaining binding at 1 µM in assay [1] stood at 67%; in [2], 100%; in assay [3], 100%; in assay [4] it was 100%; in [5] it was 9.5%; in assay [6], 97%. Besides, the remaining binding at 1 µM stood at 62% in assay [7]; 100% in assay [8]; 100% in assay [9]; 80% in assay [10]; 4.8% in assay [11].
In the case of `CNc1nc(Nc2ccc(C(=O)N3CCC(N4CCOCC4)CC3)c3c2OCO3)nc2[nH]cc(Cl)c12` [Compound 75, (7-((5-chloro-4-(methylamino)-7H-pyrrolo[2,3-d]pyrimidin-2-yl)amino)benzo[d][1,3]dioxol-4-yl)(4-morpholinopiperidin-1-yl)methanone], the remaining binding at 1 µM in assay [1] came out at 73%; in assay [2] it was 100%; in [3] it was 100%; in [4], 100%; in assay [5], 15%; in assay [6], 97%. Also, the remaining binding at 1 µM is 73% in [7]; 35% in assay [8]; 98% in [9]; 51% in assay [10]; 5.4% in assay [11].
`CNc1nc(Nc2ccc(P3(=O)CCN(C4CCOCC4)CC3)cc2OC)nc2[nH]cc(Cl)c12` [Compound 77, 4-(4-((5-chloro-4-(methylamino)-7H-pyrrolo[2,3-d]pyrimidin-2-yl)amino)-3-methoxyphenyl)-1-(tetrahydro-2H-pyran-4-yl)-1,4-azaphosphinane 4-oxide]: the remaining binding at 1 µM came to 60% in assay [1]; 100% in assay [2]; 100% in [3]; 99% in [4]; 8.9% in [5]; 99% in [6]. The remaining binding at 1 µM stood at 87% in assay [7]; 95% in assay [8]; 99% in assay [9]; 76% in assay [10]; 0.5% in [11].
